Tests used:
[1] = tested on: differentiated human THP-1 monocytes; assay: Cytotoxicity assay, lactate dehydrogenase (LDH) release (CytoTox 96, Promega G1780); format: cell-based; settings: samples from CEC assay, reference standard = non-isomerically pure hydroxypropyl beta-cyclodextrin
Procedure: Cytotoxicity was measured using a lactate dehydrogenase (LDH) assay, according to the manufacturer's protocol (CytoTox 96® Non-Radioactive Cytotoxicity Assay, Promega, G1780). Supernatants and cell lysates from CEC assay served as samples. Briefly, 50 uL of supernatant and cell lysates were transferred into separate transparent 96-well plates. 50 uL CytoTox 96© Reagent was added to the wells, mixed by pipetting, and incubated for 10 minutes protected from light. 50 μL of Stop Solution was added, mixed by pipetting, and absorbance (OD) was measured at 490 nm in a plate reader. Phenol red-free RPMI with 10% […] and Cell Lysis Buffer (abcam, ab196985) served as background controls. Percent (%) cytotoxicity was measured as OD supernatant/(OD supernatant+OD cell lysate)×100%.
Lactate dehydrogenase (LDH) released from cells treated with compounds of the disclosure at concentrations of 0.1 mM, 0.3 mM and 1 mM, relative to LDH) released from cells treated with a reference standard, are summarized in Table 2. In the table, A denotes compounds releasing LDH in an amount of <70% of that of the reference standard; B denotes compounds releasing LDH in an amount of 71-95% of that of the reference standard; 0 denotes compounds releasing LDH in an amount of 96%-105% of that of the reference standard; +denotes compounds releasing LDH in an amount of 106%-120% of that of the reference standard; and ++denotes compounds releasing LDH in an amount of >120% of that of the reference standard The reference standard is a non-isomerically pure hydroxypropyl beta-cyclodextrin.

[2] = tested on: differentiated human THP-1 monocytes; assay: CEC - Cholesterol Efflux Assay (abcam ab196985); format: cell-based; settings: 4 h, reference standard = non-isomerically pure hydroxypropyl beta-cyclodextrin
Procedure: Cholesterol Efflux from differentiated human THP-1 monocytes was assessed according to the manufacturer's protocol (abcam, ab196985). Briefly, THP-1 monocytes were differentiated for 48 h in presence of 100 nM phorbol 12-myristate-13-acetate (PMA) in RPMI 1640 growth medium (10% FCS, 1% penicillin/streptomycin) in a humidified incubator (37° C., 5% CO2). Differentiated THP-1 macrophage-like cells were harvested, washed with PBS, resuspended in growth medium, seeded at 1×10^5 cells into 96-well plates, and allowed to adhere for 6h. Cells were washed with serum-free RPMI media, and labelled with 100 μL of fluorescent cholesterol labelling medium (50 uL Labeling Reagent+50 uL serum-free RPMI) for 1 h protected from light. Labeling medium was removed and replaced with 100 μL, 37° C. pre-warmed equilibration medium (50 uL Equilibration Buffer+[…] Reagent A +10 μL/mL Reagent B+50 uL serum-free RPMI) and incubated for 16±1 h in an incubator (37° C., 5% CO2). Equilibration medium was removed, and cells were washed with RPMI (w/o phenol red, w/o serum). Serum cholesterol acceptor was prepared by mixing 2 parts of Serum Treatment Reagent with 5 parts of human serum, incubated on ice for 20 minutes. The mix was centrifuged at 9,000×g for 10 minutes at 4° C., and supernatants were stored on ice until use. THP-1 cells were incubated for 4 h with 100 uL RPMI media (w/o phenol red, w/o serum), spiked with 10 uL of compound (10× stock in PBS) and 2 uL serum acceptor (2%), or RPMI media spiked with 10 uL PBS and 2 uL serum acceptor (negative control). Following incubation, plates were centrifuged and whole supernatants were transferred to an opaque 96-well plate. Remaining cells were lysed by adding 100 μL of Cell Lysis Buffer and shaking at 500 rpm for 25 minutes protected from light. Cell lysate was resuspended and transferred into an opaque 96-well. Plates containing supernatants or cell lysates were measured in a plate reader at 485 nm (excitation) and 523 nm (emission). Percent (%) cholesterol efflux was measured as RFU supernatant/(RFU supernatant +RFU cell lysate)×100%.
The cholesterol efflux from cells treated with compounds of the disclosure at concentrations of 0.1 mM, 0.3 mM and 1 mM, relative to cholesterol efflux from cells treated with a reference standard, are summarized in Table 1. In the table, A denotes compounds with a CEC of >126% of that of the reference standard and B denotes compounds with a CEC of 106% to 125% of that of the reference standard; 0 denotes compounds with a CEC of 96%-105% of that of the reference standard; and—denotes compounds with a CEC of 75%-95% of that of the reference standard. The reference standard is a non-isomerically pure hydroxypropyl beta-cyclodextrin.

| Structure (SMILES) | Release of lactate dehydrogenase from cells treated with compounds, relative to reference standard ([1]; 0.1 mM) | Release of lactate dehydrogenase from cells treated with compounds, relative to reference standard ([1]; 0.3 mM) | Release of lactate dehydrogenase from cells treated with compounds, relative to reference standard ([1]; 1 mM) | Cholesterol efflux from cells treated with compounds, relative to reference standard ([2]; 0.1 mM) | Cholesterol efflux from cells treated with compounds, relative to reference standard ([2]; 0.3 mM) | Cholesterol efflux from cells treated with compounds, relative to reference standard ([2]; 1 mM) |
| --- | --- | --- | --- | --- | --- | --- |
| COCCO[C@H]1[C@H]2O[C@H]3[C@H](O)[C@@H](OCCOC)[C@@H](O[C@H]4[C@H](O)[C@@H](OCCOC)[C@@H](O[C@H]5[C@H](O)[C@@H](OCCOC)[C@@H](O[C@H]6[C@H](O)[C@@H](OCCOC)[C@@H](O[C@H]7[C@H](O)[C@@H](OCCOC)[C@@H](O[C@H]8[C@H](O)[C@@H](OCCOC)[C@@H](O[C@@H]([C@@H]1O)[C@@H](CO)O2)O[C@@H]8CO)O[C@@H]7CO)O[C@@H]6CO)O[C@@H]5CO)O[C@@H]4CO)O[C@@H]3CO [Compound 1] | B (B denotes compounds releasing LDH in an amount of 71-95% of that of the reference standard) | B (B denotes compounds releasing LDH in an amount of 71-95% of that of the reference standard) | B (B denotes compounds releasing LDH in an amount of 71-95% of that of the reference standard) | 0 (0 denotes compounds with a CEC of 96%-105% of that of the reference standard) | 0 (0 denotes compounds with a CEC of 96%-105% of that of the reference standard) | 0 (0 denotes compounds with a CEC of 96%-105% of that of the reference standard) |
| OCC(O)CO[C@H]1[C@H]2O[C@H]3[C@H](O)[C@@H](OCC(O)CO)[C@@H](O[C@H]4[C@H](O)[C@@H](OCC(O)CO)[C@@H](O[C@H]5[C@H](O)[C@@H](OCC(O)CO)[C@@H](O[C@H]6[C@H](O)[C@@H](OCC(O)CO)[C@@H](O[C@H]7[C@H](O)[C@@H](OCC(O)CO)[C@@H](O[C@H]8[C@H](O)[C@@H](OCC(O)CO)[C@@H](O[C@@H]([C@@H]1O)[C@@H](CO)O2)O[C@@H]8CO)O[C@@H]7CO)O[C@@H]6CO)O[C@@H]5CO)O[C@@H]4CO)O[C@@H]3CO (stereo partly drawn) [Compound 3] | ++ (++denotes compounds releasing LDH in an amount of >120% of that of the reference standard) | + (+denotes compounds releasing LDH in an amount of 106%-120% of that of the reference standard) | 0 (0 denotes compounds releasing LDH in an amount of 96%-105% of that of the reference standard) | − (—denotes compounds with a CEC of 75%-95% of that of the reference standard) | − (—denotes compounds with a CEC of 75%-95% of that of the reference standard) | − (—denotes compounds with a CEC of 75%-95% of that of the reference standard) |
| CC(O)CO[C@@H]1[C@@H](O)[C@H]2O[C@H]3[C@H](OCC(C)O)[C@@H](O)[C@@H](O[C@H]4[C@H](OCC(C)O)[C@@H](O)[C@@H](O[C@H]5[C@H](OCC(C)O)[C@@H](O)[C@@H](O[C@H]6[C@H](OCC(C)O)[C@@H](O)[C@@H](O[C@H]7[C@H](OCC(C)O)[C@@H](O)[C@@H](O[C@H]8[C@H](OCC(C)O)[C@@H](O)[C@@H](O[C@@H]1[C@@H](CO)O2)O[C@@H]8CO)O[C@@H]7CO)O[C@@H]6CO)O[C@@H]5CO)O[C@@H]4CO)O[C@@H]3CO (stereo partly drawn) [Compound 4] | ++ (++denotes compounds releasing LDH in an amount of >120% of that of the reference standard) | ++ (++denotes compounds releasing LDH in an amount of >120% of that of the reference standard) | ++ (++denotes compounds releasing LDH in an amount of >120% of that of the reference standard) | − (—denotes compounds with a CEC of 75%-95% of that of the reference standard) | − (—denotes compounds with a CEC of 75%-95% of that of the reference standard) | − (—denotes compounds with a CEC of 75%-95% of that of the reference standard) |
| CC(O)CO[C@H]1[C@H]2O[C@H]3[C@H](O)[C@@H](OCC(C)O)[C@@H](O[C@H]4[C@H](O)[C@@H](OCC(C)O)[C@@H](O[C@H]5[C@H](O)[C@@H](OCC(C)O)[C@@H](O[C@H]6[C@H](O)[C@@H](OCC(C)O)[C@@H](O[C@H]7[C@H](O)[C@@H](OCC(C)O)[C@@H](O[C@H]8[C@H](O)[C@@H](OCC(C)O)[C@@H](O[C@@H]([C@@H]1O)[C@@H](CO)O2)O[C@@H]8CO)O[C@@H]7CO)O[C@@H]6CO)O[C@@H]5CO)O[C@@H]4CO)O[C@@H]3CO (stereo partly drawn) [Compound 5] | 0 (0 denotes compounds releasing LDH in an amount of 96%-105% of that of the reference standard) | 0 (0 denotes compounds releasing LDH in an amount of 96%-105% of that of the reference standard) | 0 (0 denotes compounds releasing LDH in an amount of 96%-105% of that of the reference standard) | − (—denotes compounds with a CEC of 75%-95% of that of the reference standard) | − (—denotes compounds with a CEC of 75%-95% of that of the reference standard) | − (—denotes compounds with a CEC of 75%-95% of that of the reference standard) |
| CC(C)(O)CO[C@@H]1[C@@H](O)[C@H]2O[C@H]3[C@H](OCC(C)(C)O)[C@@H](O)[C@@H](O[C@H]4[C@H](OCC(C)(C)O)[C@@H](O)[C@@H](O[C@H]5[C@H](OCC(C)(C)O)[C@@H](O)[C@@H](O[C@H]6[C@H](OCC(C)(C)O)[C@@H](O)[C@@H](O[C@H]7[C@H](OCC(C)(C)O)[C@@H](O)[C@@H](O[C@H]8[C@H](OCC(C)(C)O)[C@@H](O)[C@@H](O[C@@H]1[C@@H](CO)O2)O[C@@H]8CO)O[C@@H]7CO)O[C@@H]6CO)O[C@@H]5CO)O[C@@H]4CO)O[C@@H]3CO [Compound 6] | 0 (0 denotes compounds releasing LDH in an amount of 96%-105% of that of the reference standard) | + (+denotes compounds releasing LDH in an amount of 106%-120% of that of the reference standard) | + (+denotes compounds releasing LDH in an amount of 106%-120% of that of the reference standard) | 0 (0 denotes compounds with a CEC of 96%-105% of that of the reference standard) | − (—denotes compounds with a CEC of 75%-95% of that of the reference standard) | − (—denotes compounds with a CEC of 75%-95% of that of the reference standard) |

Reference: patent publication US20260174863A1, “ISOMERICALLY PURE BETA-CYCLODEXTRIN DERIVATIVES AND USES THEREOF” (Beren Therapeutics P.B.C., priority 2023, published 2026)
